Converted amounts (≈) assume the structure as drawn.
What was measured:
weed [1] = experiment: Paint panel / plaque tests against weed (Table 2); assay type: in vivo, grass-like algal growth common in sea water; set-up: key: high performance; medium performance; low performance; poor or unacceptable performance; conditions: April to November, 1975
Source text: (3) PAINT FORMULATION AND TEST PANEL OR PLAQUE TESTS
In order to evaluate the compound under practical conditions, weighed quantities of promising compounds are ground in standard volumes of a selected range of paint media and brushed out on plaques for marine immersion.
The anti-fouling paint formulations used is exemplified by the following: […]
The most preferred specific compounds were utilized in paints including vinyl chloride-vinyl acetate copolymers, chlorinated rubber, acrylic emulsions, and conventional paints with or without rosin to contain 20% by weight of biocide in the wet film and in some cases (Example 144 and Example 145) with concentrations of 5, 10, and 15% based on the wet film. Each of the compounds is also described in the membrane tests noted above. The paints were applied at normal thicknesses to plaques or panels of 10 centimeters by 10 centimeters which were immersed in various positions as described for the raft noted above. The compounds and results, as against weed, in the season April to November, 1975, are as follows: […]

Enteromorpha spores = experiment: Laboratory toxicity test (Lab Bioassay) with Enteromorpha spores; assay type: in vivo; conditions: using Enteromorpha spores
Source text: Standard laboratory toxicity tests use Enteromorpha spores (zoospores or gametes) but Ectocarpus spores and barnacle nauplii may also be used. During the spore tests additional information on the control of bacterial and diatom slimes becomes available since these organisms are unavoidably introduced with the spore inoculum.
More detailed laboratory toxicity tests on promising compounds determine LD50 values as percentage saturated solution.
^c Using Enteromorpha spores.

weed [2] = experiment: Membrane Diffusion Raft Trials, weed control; assay type: in vivo, grass-like algal growth common in sea water; conditions: membrane test, average 15 to 16 weeks of immersion
Source text: (§1) 1). FIELD TESTS: - Membrane Diffusion Raft Trials
(§2) A specially constructed raft provides three types
(§3) a). Waterline Well illuminated, aerated
(§4) b). Flats Poorly illuminated deeper
(§5) A known quantity of the test compound is placed into a cylindrical plastic container whose open end is then covered with a membrane of known porosity; the complete unit is attached to the appropriate raft panel so that the poison can freely diffuse into the free water layer around it. Regular inspections, recording time and quantity of settlement, allow a life history of each membrane trial to be constructed. Each raft panel contains 35 compounds to be evaluated together with 4 standard poisons and 1 non-toxic membrane for control.
(§6) The behavior on the raft can thus be compared with that of the standard poisons and the non-toxic control. At normal loading a membrane over the standard poisons would be free from macro-fouling after six months immersion. Compounds showing selective effects against restricted groups of fouling organisms also show up by membrane testing.
(§7) After the completion of membrane tests the contents of all containers are checked visually for poison loss. An empty container indicates an unacceptably high solubility for long term effectiveness; where the poison loss is low the compound is tested in one of two ways depending on its performance against fouling.
(§8) In the membrane tests, the results of approximately 140 compounds evaluated appear in Table 1. The symbols "0" means no detactable effect, the symbol "+" indicates the compound is active against the given fouling organism, and the symbol "++" means that the compound appears to be effective over at least about a four month period for essentially preventing fouling activity by the given organism. In the Table, "weed" designates a grass-like algal growth common in sea water.
(§9) Membrane Test results are of an average 15 to 16 weeks of immersion,
(§10) ^a 0 = none, + = some, + + = effective.

barnacle = experiment: Membrane Diffusion Raft Trials, barnacle control; assay type: in vivo, barnacles; conditions: membrane test, average 15 to 16 weeks of immersion
Source text: as §1, §2, §3, §4, §5, §6, §7, §8, §9, §10
^f The 1975 Spring settlement of barnacles was very meager and the […]

[3] = Amount of toxicant remaining in the test container after membrane diffusion raft tests; assay type: physicochemical; set-up: key: 0: empty or trace; +: some; + +: ample; conditions: after completion of membrane diffusion raft tests
Source text: as §5, §7
^b Amount of toxicants remaining in the test container after the
completion of the membrane diffusion raft tests: 0 = empty or trace, + =

[4] = Water solubility by UV spectrophotometric method; assay type: physicochemical; conditions: water, saturated solution; Table 1; read-out: Solubility by UV method
Procedure: The water solubilities of several isothiazolones were determined by UV spectrophotometric measurements of saturated aqueous solution of each compound in comparison with measurement of solutions of carefully prepared known concentration as outlined in the following example.
DETERMINATION OF SOLUBILITY OF 5-CHLORO-2-(4-FLUOROPHENYL)-4-METHYL-3-ISOTHIAZOLONE OF EXAMPLE 115
A sample of 5-chloro-2-(4-fluorophenyl)-4-methyl-3-isothiazolone (0.0406 g., 1.67 × 10^-4 mole) was dissolved in 50 ml. of methanol. A 5 ml. aliquot of the solution was diluted to 1000 ml. with deionized water, providing a solution of 1.67 × 10^-5 moles/liter concentration. An ultraviolet spectrum of this solution was run using a 10 cm. cell. The absorbance (As) at the wave length of maximum absorption (279 nm.) was 1.208. The molar absorptivity, AM, was calculated from the relationship
where b and c are path length or cell thickness and concentration respectively. Thus, AM was [formula]
Another sample of the compound (0.3-0.5 g.) was stirred vigorously in 40 ml. of deionized water for approximately 72 hrs. to give a saturated solution. The mixture was filtered through very fine filter paper (Whatman No. 50) to remove all suspended solid. Small portions of the filtrate were diluted with water by various factors until an approximately mid-scale absorbance was obtained upon running an ultraviolet spectrum. Such an absorbance was obtained at a dilution of 10. The absorbance was 0.975 in a 10 cm. cell. Using the value for AM obtained earlier, in the equation

Row | Structure (SMILES) | Effectiveness in paint CONV (conventional anti-fouling formulation) (weed [1]) | Effectiveness in paint CR (chlorinated rubber) (weed [1]) | Effectiveness in paint CR/R (chlorinated rubber/rosin) (weed [1]) | Effectiveness in paint EM (acrylic emulsion) (weed [1]) | Effectiveness in paint V (polyvinyl chloride-acetate) (weed [1]) | Effectiveness in paint V/R (vinyl/rosin) (weed [1]) | Lab Bioassay LD50 (Enteromorpha spores) | Weed Control (weed [2]) | Barnacle Control (barnacle) | Contents at the end of test (amount of toxicants remaining in the test container) [3] | solubility [4]
1 | O=c1c(Cl)c(Cl)sn1-c1ccccc1 [Example 150] | p | p | h | p | m | h | – | – | – | – | –
2 | Cc1c(Cl)sn(-c2ccc(I)cc2)c1=O [Example 117] | – | – | – | – | – | – | 0.2 percentage saturated solution | + | + + | + + | –
3 | Cc1c(Cl)sn(-c2ccc(Cl)cc2)c1=O [Example 147] | p | h | h | m | h | h | – | – | – | – | –
4 | O=c1cc(Cl)sn1-c1ccc(I)cc1 [Example 36] | – | – | – | – | – | – | 0.08 percentage saturated solution | + + | 0 | + + | –
5 | Cc1c(Cl)sn(-c2ccc(O)cc2)c1=O [Example 125] | – | – | – | – | – | – | > 1 percentage saturated solution | + + | 0 | + + | –
6 | O=c1cc(Cl)sn1-c1ccc(Br)cc1 [Example 35] | – | – | – | – | – | – | 0.22 percentage saturated solution | + + | 0 | + + | –
7 | O=c1cc(Cl)sn1-c1ccc(Oc2ccccc2)cc1 [Example 39] | – | – | – | – | – | – | 0.6 percentage saturated solution | 0 | + + | + + | –
8 | Cc1cccc(-n2sc(Cl)c(C)c2=O)c1 [Example 119] | – | – | – | – | – | – | 0.1 percentage saturated solution | + + | 0 | + + | –
9 | O=c1ccsn1Cc1ccccc1 [Example 10] | – | – | – | – | – | – | – | 0 | 0 | 0 | 3000 µg/mL (≈ 15700 µM)
10 | CCCCCCCCCCCCn1sc(Cl)c(Cl)c1=O [Example 64] | – | – | – | – | – | – | – | 0 | + | + + | 0.1 to 3 µg/mL (≈ 0.296 to 8.87 µM)
11 | O=c1c(Cl)c(Cl)sn1CCc1ccccc1 [Example 146] | h | h | h | p | h | h | – | – | – | – | –
12 | O=c1cc(Cl)sn1C1CCCCC1 [Example 27] | – | – | – | – | – | – | – | 0 | + | + | 217 µg/mL (≈ 997 µM)
13 | CCCCc1ccc(-n2sc(Cl)c(C)c2=O)cc1 [Example 121] | – | – | – | – | – | – | 0.13 percentage saturated solution | + + | + + | – | –
14 | Cc1c(Cl)sn(-c2ccccc2)c1=O [Example 111] | – | – | – | – | – | – | – | + + | + | + | 200 µg/mL (≈ 886 µM)
15 | CCCCCCCCn1sc(Cl)c(C)c1=O [Example 101] | – | – | – | – | – | – | – | + + | + + | 0 | 38 µg/mL (≈ 145 µM)
16 | CCCCCCCCCCCCCCCCn1sc(Cl)c(Cl)c1=O [Example 66] | – | – | – | – | – | – | – | 0 | 0 | + + | 0.5 µg/mL (≈ 1.27 µM)
17 | O=c1ccsn1-c1ccc(Cl)cc1 [Example 12] | – | – | – | – | – | – | – | + | + | + | 180 µg/mL (≈ 850 µM)
18 | CCCCCCCCn1scc(Br)c1=O [Example 48] | – | – | – | – | – | – | – | 0 | 0 | + | 45 µg/mL (≈ 154 µM)
19 | Cc1c(Cl)sn(Cc2ccc(Cl)cc2)c1=O [Example 110] | – | – | – | – | – | – | – | + | + | + + | 34 µg/mL (≈ 124 µM)
20 | O=c1c(Cl)c(Cl)sn1Cc1ccc(Cl)cc1 [Example 149] | h | – | h | h | l | h | – | – | – | – | –
21 | CCCCCCCCCCCCCCn1sc(Cl)c(Cl)c1=O [Example 65] | – | – | – | – | – | – | – | 0 | 0 | + + | 0.9 µg/mL (≈ 2.46 µM)
22 | O=c1c(Cl)c(Cl)sn1Cc1ccccc1 [Example 148] | p | h | h | p | h | h | – | – | – | – | –

Source: patent US4127687A, “Prevention of fouling of marine structures such as boat hulls” (Rohm and Haas Company, priority 1976, dated 1978)
